Reference: paper PMC7549094 (Journal of Medicinal Chemistry, 2020)

Key:
[1] = metabolite profile in rat hepatocytes; format: in vitro ADME; details: 10 μM of 1 for 4 h, UV 250 nm, normalized to largest peak
human CYP2D6 = human CYP2D6 (Homo sapiens, UniProt P10635); details: human recombinant CYP; 1 µM, 30 min
[2] = microsomal extraction ratio, 1 h incubation in microsomes
hr CCKa = biological target: T1, hr CCKa (Homo sapiens, UniProt P32238); assay: receptor profile (Table S4); format: binding
T1 sequence (P32238 1-428): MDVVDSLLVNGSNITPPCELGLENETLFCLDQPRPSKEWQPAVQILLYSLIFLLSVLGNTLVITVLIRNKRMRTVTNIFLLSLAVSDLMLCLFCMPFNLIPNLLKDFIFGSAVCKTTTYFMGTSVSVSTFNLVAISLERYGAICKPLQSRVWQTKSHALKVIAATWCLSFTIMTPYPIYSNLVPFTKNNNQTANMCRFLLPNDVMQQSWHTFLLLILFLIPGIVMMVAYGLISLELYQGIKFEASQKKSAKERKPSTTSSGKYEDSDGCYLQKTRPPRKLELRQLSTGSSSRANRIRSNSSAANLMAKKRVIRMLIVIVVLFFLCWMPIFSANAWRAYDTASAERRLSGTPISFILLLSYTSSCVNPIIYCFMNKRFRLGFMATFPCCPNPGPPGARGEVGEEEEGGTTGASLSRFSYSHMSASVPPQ

[3] = mouse plasma protein binding; format: in vitro ADME
[4] = biological target: wild-type (PSMB4^WT) L. tarentolae proteasome (Leishmania tarentolae, UniProt A0A640KTY7+A0A640KW57); assay: chymotrypsin-like activity of purified wild-type L. tarentolae proteasome; format: biochemical; details: n = 3 technical replicates
hr ERa ag = hr ERa ag (Homo sapiens, UniProt P03372); assay: receptor profile (Table S4); format: biochemical
hr Ad2A = hr Ad2A (Homo sapiens, UniProt P29274); assay: receptor profile (Table S4); format: binding
in vivo = details: male, Sprague-Dawley, rat
hr Nav1.5 = hr Nav1.5 (Homo sapiens, UniProt Q14524); assay: receptor profile (Table S4); details: hr Nav1.5
Nav1.5 = Nav1.5 (Homo sapiens, UniProt Q14524); assay: receptor profile (Table S4); details: human
hr TP antag = biological target: T2, hr TP antag (Homo sapiens, UniProt P21731); assay: receptor profile (Table S4); format: biochemical
T2 sequence (P21731 1-343): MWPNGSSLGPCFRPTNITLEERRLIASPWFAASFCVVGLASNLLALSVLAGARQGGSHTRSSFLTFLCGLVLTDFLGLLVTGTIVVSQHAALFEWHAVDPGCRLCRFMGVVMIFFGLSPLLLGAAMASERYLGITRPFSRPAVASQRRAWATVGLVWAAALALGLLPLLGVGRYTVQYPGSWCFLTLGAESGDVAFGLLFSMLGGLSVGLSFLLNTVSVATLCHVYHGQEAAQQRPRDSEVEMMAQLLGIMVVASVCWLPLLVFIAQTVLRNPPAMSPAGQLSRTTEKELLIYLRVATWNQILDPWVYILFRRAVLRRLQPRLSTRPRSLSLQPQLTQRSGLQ

[5] = brain/plasma exposure in mice; format: in vivo; details: mouse, brain, read-out: brain/plasma AUC ratio
[6] = tested on: T. brucei bloodstream form overexpressing PSMB5 Y113F; assay: growth inhibition of T. brucei overexpressing PSMB5 Y113F; format: cell-based
hERG = hERG (Homo sapiens, UniProt Q12809); assay: receptor profile (Table S4)
hr 5-HT2C = biological target: T3, hr 5-HT2C (Homo sapiens, UniProt P28335); assay: receptor profile (Table S4); format: binding
T3 sequence (P28335 33-458): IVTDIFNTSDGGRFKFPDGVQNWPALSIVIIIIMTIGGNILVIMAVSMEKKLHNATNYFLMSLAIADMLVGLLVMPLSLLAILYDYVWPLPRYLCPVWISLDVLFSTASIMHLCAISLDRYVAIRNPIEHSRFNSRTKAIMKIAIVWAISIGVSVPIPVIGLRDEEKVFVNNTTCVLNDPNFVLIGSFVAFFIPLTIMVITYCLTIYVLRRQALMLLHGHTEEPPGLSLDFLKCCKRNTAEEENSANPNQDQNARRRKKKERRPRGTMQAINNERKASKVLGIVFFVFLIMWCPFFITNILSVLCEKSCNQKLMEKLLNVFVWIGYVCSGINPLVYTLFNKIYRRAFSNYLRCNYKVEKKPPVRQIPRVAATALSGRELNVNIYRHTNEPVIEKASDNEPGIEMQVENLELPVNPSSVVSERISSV

[7] = male beagle dog, 1.0 mg/kg PO, dose-normalized

With `Cc1nc(C)c(C(=O)Nc2ccc(F)c(-c3nc4ncc(-c5ncccc5C)cn4n3)c2)o1` [compound 1, N-(4-Fluoro-3-(6-(3-methylpyridin-2-yl)-[1,2,4]triazolo[1,5-a]pyrimidin-2-yl)phenyl)-2,4-dimethyloxazole-5-carboxamide] the abundance rat [1] was “+++ (+++ > 75%)”, the “substrate of human CYP2D6” value (human CYP2D6) was “not a substrate” and the ER human [2] was 0.27. For the same molecule, the EC50/IC50 (hr CCKa; hr CCKa) was > 30 µM, the inhibition at 10 µM (hr CCKa; read-out: % inh/act @ 10 µM) was 12% and the inhibition at 30 µM (hr CCKa; read-out: % inh/act @ 30 µM) was 50%. For the same molecule, the fraction unbound [3] was 0.056, the IC50 [4] was 0.05 µM and the EC50/IC50 (hr ERa ag; hr ERa ag) was > 30 µM. For the same molecule, the inhibition at 10 µM (hr ERa ag; read-out: % inh/act @ 10 µM) was 7%, the inhibition at 30 µM (hr ERa ag; read-out: % inh/act @ 30 µM) was 15% and the EC50/IC50 (hr Ad2A; hr Ad2A) was > 30 µM. The inhibition at 10 µM (hr Ad2A; read-out: % inh/act @ 10 µM) was 26%, the inhibition at 30 µM (hr Ad2A; read-out: % inh/act @ 30 µM) was 52% and the clearance (in vivo; in vivo, iv, 3 mg/kg) was 2.1 mL/min/kg. It also gave an MRT (in vivo; plasma, iv, 3 mg/kg) of 4.3 h, a Vd (in vivo; plasma, iv, 3 mg/kg) of 0.53 L/kg and a half-life (in vivo; plasma, iv, 3 mg/kg) of 3.8 h. For the same molecule, the bioavailability (in vivo; plasma, po, 10 mg/kg) was 67%, the EC50/IC50 (hr Nav1.5) was > 50 µM and the inhibition at 10 µM (Nav1.5) was 8%. The inhibition at 30 µM (Nav1.5) was 3%, the EC50/IC50 (hr TP antag; hr TP antag) was > 30 µM and the inhibition at 10 µM (hr TP antag; read-out: % inh/act @ 10 µM) was 14%. The inhibition at 30 µM (hr TP antag; read-out: % inh/act @ 30 µM) was 28%, the Kp [5] was 0.03 and the “effect of β5 Y113F mutation of T. brucei proteasome on activity” value ([6]; T. brucei, β5 Y113F) was “loss of activity”. The EC50 ([6]; Trypanosoma brucei, 48 h, read-out: EC50, T. brucei growth) was 3.3 µM, the EC50/IC50 (hERG; hERG) was > 30 µM and the inhibition at 10 µM (hERG; human) was -36%. For the same molecule, the inhibition at 30 µM (hERG; human) was -25%, the EC50/IC50 (hr 5-HT2C; hr 5-HT2C) was > 30 µM and the inhibition at 10 µM (hr 5-HT2C; read-out: % inh/act @ 10 µM) was 9%. The inhibition at 30 µM (hr 5-HT2C; read-out: % inh/act @ 30 µM) was 8%, the “CL as % of hepatic blood flow” value (dog, IV, fumarate salt) was 37 % of hepatic blood flow and the “DN AUC PO” value [7] was 1.5 µM·h. For the same molecule, the “DN Cmax PO” value [7] was 300 nM.
